Measurements reported in ChEMBL document CHEMBL1201862, “PubChem BioAssay data set” (2004).
Activity calls are given as the source filed them.

Tests used:
[1] = biological target: Large T antigen (Simian virus 40, UniProt P03070); type: functional, Betapolyomavirus macacae;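 also: Confirmatory-stage PubChem screen for compounds that inhibit SV40 T antigen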
[2] = biological target: Intestinal-type alkaline phosphatase (Homo sapiens, UniProt P09923); assay: activation of human intestinal alkaline phosphatase – biochemical, dose response (AID 488873); type: functional
Chain of Intestinal-type alkaline phosphatase (Homo sapiens, UniProt P09923) (P09923 whole entry): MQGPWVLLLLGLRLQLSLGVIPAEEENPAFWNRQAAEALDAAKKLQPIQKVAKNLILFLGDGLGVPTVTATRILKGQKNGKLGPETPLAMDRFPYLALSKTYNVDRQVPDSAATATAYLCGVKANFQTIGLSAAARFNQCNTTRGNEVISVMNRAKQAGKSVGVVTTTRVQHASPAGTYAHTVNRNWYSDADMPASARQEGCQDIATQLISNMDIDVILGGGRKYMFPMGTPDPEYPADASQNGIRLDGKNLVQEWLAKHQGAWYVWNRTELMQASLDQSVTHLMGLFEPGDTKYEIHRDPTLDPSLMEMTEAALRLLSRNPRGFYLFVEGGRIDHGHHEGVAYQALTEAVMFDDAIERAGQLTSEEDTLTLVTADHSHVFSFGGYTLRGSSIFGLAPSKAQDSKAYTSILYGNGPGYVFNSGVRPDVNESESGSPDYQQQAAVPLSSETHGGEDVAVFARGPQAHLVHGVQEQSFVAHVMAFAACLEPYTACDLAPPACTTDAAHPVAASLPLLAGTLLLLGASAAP

[3] = biological target: FAD-linked sulfhydryl oxidase ALR (Homo sapiens, UniProt P55789); assay: inhibitors of human ALR sulfhydryl oxidase, dose response, biochemical, H2O2 detection, luminescence, cherry-pick (AID 493248)
Chain of FAD-linked sulfhydryl oxidase ALR (P55789 whole entry): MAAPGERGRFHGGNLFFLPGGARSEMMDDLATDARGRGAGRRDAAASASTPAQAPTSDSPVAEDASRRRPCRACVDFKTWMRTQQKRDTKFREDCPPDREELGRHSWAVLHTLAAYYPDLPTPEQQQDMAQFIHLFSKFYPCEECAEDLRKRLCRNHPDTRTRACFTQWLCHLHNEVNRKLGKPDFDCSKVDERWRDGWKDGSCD

[4] = biological target: Intestinal-type alkaline phosphatase (Mus musculus, UniProt P24822); assay: mouse intestinal alkaline phosphatase activators, dose response, biochemical, luminescence, uHTS hits (AID 488783); type: functional
Chain of Intestinal-type alkaline phosphatase (Mus musculus, UniProt P24822) (P24822 whole entry): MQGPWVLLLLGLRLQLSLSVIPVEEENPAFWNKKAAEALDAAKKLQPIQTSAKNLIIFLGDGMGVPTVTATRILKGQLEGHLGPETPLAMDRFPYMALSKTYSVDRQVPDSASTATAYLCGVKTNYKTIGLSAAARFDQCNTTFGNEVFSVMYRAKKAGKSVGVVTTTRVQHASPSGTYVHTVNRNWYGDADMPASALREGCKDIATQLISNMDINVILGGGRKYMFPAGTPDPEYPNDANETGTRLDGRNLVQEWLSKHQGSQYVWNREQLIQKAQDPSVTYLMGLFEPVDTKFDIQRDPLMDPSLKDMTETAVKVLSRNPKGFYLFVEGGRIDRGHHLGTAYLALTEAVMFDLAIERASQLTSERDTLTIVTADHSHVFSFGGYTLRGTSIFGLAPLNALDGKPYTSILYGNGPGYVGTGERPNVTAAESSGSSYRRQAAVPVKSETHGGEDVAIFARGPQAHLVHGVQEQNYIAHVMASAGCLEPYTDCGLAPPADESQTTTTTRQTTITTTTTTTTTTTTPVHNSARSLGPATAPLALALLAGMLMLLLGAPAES

[5] = biological target: T1, Alkaline phosphatase, tissue-nonspecific isozyme (Homo sapiens, UniProt P05186); assay: TNAP enzyme activators, dose response, selectivity assay for mouse IAP activator project, biochemical, TNAP isozyme, mouse IAP uHTS hits (AID 488880); type: functional
T1 sequence (P05186 whole entry): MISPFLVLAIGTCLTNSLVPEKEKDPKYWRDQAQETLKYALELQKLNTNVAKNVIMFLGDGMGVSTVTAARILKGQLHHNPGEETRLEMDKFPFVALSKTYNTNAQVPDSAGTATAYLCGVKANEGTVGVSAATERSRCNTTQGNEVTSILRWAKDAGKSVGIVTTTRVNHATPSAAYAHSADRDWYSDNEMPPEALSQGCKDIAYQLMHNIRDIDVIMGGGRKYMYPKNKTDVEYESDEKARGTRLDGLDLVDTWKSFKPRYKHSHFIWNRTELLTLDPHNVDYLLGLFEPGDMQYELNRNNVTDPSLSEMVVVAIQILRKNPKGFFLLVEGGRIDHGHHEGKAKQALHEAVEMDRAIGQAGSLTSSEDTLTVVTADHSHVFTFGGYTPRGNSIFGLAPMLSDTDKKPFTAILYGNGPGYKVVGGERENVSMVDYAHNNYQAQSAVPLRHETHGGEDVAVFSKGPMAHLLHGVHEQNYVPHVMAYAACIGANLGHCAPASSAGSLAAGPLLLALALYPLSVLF

[6] = biological target: Benomyl/methotrexate resistance protein (Candida albicans, UniProt P28873); assay: CaMdr1 efflux pump inhibitor potency, dose response, singleplex, Cherry Pick1 hits (AID 588608); type: functional
Chain of Benomyl/methotrexate resistance protein (P28873 whole entry): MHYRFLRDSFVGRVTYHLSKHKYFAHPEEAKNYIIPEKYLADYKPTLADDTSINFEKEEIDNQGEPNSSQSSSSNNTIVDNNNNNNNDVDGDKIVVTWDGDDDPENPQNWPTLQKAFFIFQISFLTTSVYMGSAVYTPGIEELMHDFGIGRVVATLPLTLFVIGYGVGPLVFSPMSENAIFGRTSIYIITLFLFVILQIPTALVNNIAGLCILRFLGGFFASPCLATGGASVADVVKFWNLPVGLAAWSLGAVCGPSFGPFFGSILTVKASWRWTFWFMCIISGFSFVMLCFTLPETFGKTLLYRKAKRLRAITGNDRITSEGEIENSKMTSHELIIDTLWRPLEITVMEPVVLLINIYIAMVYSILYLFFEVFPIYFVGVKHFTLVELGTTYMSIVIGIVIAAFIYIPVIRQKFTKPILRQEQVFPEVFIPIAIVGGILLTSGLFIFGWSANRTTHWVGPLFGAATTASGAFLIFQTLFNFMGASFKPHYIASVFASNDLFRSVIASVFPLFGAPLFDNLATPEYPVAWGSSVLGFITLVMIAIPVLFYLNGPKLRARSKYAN

[7] = biological target: Multidrug resistance protein CDR2 (Candida albicans (strain SC5314 / ATCC MYA-2876) (Yeast), UniProt P78595); assay: CaCDR2 efflux pump inhibitors in yeast, dose response, S. cerevisiae AD1-8u, singleplex, Cherry Pick1 hits (AID 588604); type: functional
Chain of Multidrug resistance protein CDR2 (P78595 whole entry): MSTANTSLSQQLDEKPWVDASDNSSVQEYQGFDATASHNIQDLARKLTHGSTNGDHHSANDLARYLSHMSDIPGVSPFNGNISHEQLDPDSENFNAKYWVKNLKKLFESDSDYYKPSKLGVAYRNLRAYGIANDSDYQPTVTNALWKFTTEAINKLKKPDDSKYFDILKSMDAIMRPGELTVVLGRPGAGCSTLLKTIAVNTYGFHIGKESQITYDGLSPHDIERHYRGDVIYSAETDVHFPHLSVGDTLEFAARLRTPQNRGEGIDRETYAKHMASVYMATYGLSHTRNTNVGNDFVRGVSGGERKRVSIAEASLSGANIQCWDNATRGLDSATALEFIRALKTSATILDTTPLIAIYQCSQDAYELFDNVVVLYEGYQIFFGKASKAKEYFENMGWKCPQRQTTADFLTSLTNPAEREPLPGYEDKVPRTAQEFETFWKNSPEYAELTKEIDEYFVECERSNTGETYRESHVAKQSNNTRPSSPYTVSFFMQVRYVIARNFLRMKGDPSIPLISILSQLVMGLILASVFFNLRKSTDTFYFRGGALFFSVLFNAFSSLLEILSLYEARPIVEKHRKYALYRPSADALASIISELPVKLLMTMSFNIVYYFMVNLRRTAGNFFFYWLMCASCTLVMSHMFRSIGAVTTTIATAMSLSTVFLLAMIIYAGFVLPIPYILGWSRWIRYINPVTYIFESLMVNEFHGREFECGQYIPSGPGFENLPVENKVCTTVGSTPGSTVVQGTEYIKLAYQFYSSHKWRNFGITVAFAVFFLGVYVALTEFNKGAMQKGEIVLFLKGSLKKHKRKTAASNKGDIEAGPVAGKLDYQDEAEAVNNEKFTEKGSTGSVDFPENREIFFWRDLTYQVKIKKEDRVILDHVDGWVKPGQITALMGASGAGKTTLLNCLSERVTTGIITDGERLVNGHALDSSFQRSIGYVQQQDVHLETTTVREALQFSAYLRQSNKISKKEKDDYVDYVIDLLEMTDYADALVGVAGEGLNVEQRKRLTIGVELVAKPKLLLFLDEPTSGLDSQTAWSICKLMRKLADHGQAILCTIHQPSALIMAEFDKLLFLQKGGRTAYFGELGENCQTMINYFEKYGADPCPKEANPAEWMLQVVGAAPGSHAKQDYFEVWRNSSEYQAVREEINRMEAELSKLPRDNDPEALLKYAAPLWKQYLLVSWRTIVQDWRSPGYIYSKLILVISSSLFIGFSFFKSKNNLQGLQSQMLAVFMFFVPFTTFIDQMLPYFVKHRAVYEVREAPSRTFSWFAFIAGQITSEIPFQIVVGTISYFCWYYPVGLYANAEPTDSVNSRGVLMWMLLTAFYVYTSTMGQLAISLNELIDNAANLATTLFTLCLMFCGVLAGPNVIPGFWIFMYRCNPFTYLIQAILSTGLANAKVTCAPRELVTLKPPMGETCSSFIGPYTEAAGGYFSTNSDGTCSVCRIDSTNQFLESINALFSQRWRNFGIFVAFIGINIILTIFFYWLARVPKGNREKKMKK

[8] = biological target: 26S proteasome non-ATPase regulatory subunit 14 (Homo sapiens, UniProt O00487); assay: inhibition of proteasome subunit RPN11 – biochemical, fluorescence polarization, uHTS hits, confirmation (AID 602368); type: functional
Chain of 26S proteasome non-ATPase regulatory subunit 14 (O00487 whole entry): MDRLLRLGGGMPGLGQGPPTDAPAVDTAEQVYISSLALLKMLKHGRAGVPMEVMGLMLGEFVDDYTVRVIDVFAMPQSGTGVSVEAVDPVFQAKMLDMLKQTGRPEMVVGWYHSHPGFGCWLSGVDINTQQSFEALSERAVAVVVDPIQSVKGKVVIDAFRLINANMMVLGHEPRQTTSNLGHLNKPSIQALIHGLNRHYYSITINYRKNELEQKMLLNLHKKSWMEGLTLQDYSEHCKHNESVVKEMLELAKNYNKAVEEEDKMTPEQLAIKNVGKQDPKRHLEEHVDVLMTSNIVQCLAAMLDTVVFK

[9] = biological target: 72 kDa type IV collagenase (Homo sapiens, UniProt P08253); assay: Dose Response validation of uHTS RPN11 inhibitor hits using a MMP-2 Fluorescence assay.; type: functional
Chain of 72 kDa type IV collagenase (P08253 whole entry): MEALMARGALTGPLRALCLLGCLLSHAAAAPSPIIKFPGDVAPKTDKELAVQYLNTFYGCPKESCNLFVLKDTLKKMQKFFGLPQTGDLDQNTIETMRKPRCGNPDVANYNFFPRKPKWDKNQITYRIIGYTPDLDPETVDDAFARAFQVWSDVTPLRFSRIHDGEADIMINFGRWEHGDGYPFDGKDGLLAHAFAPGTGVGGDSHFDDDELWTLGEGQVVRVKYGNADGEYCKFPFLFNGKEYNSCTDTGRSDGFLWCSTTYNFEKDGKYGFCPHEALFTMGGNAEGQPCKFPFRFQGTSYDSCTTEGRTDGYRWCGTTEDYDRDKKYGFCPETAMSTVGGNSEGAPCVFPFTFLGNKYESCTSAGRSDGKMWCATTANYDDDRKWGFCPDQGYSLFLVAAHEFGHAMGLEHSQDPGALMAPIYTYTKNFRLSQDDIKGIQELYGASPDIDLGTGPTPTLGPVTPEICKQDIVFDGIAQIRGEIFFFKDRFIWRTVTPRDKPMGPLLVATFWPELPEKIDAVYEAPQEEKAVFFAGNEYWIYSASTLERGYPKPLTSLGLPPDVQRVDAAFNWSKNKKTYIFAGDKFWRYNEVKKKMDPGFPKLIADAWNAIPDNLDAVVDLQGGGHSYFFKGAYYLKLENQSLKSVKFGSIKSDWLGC

[10] = biological target: Prothrombin (Bos taurus, UniProt P00735); assay: thrombin inhibition, dose response, biochemical, fluorescence polarization, uHTS hits (AID 602369); type: functional
[11] = biological target: T2, Histone-lysine N-methyltransferase NSD2 (Homo sapiens, UniProt O96028); type: biochemical
T2 sequence (O96028 whole entry): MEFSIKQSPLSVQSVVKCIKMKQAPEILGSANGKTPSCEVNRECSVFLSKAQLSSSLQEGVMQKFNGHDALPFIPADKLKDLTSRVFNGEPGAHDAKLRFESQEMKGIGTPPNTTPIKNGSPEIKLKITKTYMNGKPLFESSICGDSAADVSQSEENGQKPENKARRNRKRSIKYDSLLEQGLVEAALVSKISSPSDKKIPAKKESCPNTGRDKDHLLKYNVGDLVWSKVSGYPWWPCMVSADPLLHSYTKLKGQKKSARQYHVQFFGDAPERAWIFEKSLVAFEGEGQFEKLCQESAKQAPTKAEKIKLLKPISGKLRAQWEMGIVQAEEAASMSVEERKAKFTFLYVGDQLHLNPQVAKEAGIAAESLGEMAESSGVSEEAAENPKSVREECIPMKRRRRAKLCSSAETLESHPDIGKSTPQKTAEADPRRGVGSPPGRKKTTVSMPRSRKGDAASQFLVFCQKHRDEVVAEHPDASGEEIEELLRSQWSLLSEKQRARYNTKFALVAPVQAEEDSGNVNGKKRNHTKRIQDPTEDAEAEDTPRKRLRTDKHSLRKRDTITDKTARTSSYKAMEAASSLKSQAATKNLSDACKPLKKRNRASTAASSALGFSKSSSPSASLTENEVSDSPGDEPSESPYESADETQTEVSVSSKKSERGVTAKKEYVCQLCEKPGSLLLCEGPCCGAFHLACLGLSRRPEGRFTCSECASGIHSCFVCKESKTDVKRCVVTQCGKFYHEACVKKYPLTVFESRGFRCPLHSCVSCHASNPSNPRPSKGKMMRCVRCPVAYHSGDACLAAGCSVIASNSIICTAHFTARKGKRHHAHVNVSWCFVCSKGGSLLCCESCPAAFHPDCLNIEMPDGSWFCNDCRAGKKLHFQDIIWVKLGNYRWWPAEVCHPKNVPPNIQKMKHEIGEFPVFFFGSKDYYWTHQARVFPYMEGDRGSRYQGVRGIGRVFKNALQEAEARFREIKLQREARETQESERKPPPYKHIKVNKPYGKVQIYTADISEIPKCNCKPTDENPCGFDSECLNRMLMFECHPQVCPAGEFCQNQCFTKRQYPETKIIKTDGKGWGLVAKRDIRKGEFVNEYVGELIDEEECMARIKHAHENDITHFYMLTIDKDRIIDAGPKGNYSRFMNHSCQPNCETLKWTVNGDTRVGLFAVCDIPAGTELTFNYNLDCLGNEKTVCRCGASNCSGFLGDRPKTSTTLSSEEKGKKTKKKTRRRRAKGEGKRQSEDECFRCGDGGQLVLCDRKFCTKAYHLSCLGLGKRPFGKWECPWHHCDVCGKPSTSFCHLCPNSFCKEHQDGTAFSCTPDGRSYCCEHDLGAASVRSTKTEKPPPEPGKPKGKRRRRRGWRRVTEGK

[12] = biological target: Melanin-concentrating hormone receptor 1 (Homo sapiens, UniProt Q99705); assay: Late-stage fluorescence-based counterscreen for antagonists of the G-protein coupled receptor 7 (GPR7): cell-based dose response assay to identify antagonists of the melanin-concentrating hormone receptor 1 (MCHR1) Set 6.; type: functional
Chain of Melanin-concentrating hormone receptor 1 (Q99705 whole entry): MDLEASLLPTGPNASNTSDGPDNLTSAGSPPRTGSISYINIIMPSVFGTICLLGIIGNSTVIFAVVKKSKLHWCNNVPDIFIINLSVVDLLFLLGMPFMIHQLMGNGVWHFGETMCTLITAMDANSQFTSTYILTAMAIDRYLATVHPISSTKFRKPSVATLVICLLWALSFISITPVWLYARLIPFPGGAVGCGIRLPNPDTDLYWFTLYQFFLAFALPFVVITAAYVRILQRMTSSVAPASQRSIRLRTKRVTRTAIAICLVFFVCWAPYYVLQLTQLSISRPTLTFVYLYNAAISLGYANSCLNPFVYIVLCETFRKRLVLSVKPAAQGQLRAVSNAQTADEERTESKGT

[13] = biological target: Neuropeptides B/W receptor type 1 (Homo sapiens, UniProt P48145); assay: GPR7 antagonist potency, late-stage follow-up, cell-based, fluorescence, dose response, set 6 (AID 588583); type: functional
Chain of Neuropeptides B/W receptor type 1 (P48145 whole entry): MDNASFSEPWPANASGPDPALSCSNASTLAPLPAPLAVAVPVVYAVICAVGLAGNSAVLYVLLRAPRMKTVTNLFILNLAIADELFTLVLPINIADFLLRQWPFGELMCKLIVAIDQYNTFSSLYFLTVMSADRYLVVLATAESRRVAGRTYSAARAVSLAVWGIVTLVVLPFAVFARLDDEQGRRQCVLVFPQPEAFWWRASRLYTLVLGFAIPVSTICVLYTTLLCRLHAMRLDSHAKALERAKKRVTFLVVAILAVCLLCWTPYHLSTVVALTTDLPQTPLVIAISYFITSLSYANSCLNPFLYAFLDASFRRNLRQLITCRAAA

[14] = THP-1 cell cytotoxicity, cytotoxicity control, set 5 (AID 588443); type: functional

Q: Which IC50 [1] does the source give for `O=C(O)C(c1ccccc1)N1C(=O)/C(=C\c2ccc(O)c(O)c2)SC1=S` (centres undefined) here?
A: Its IC50 is 7.85 µM (active).

Q: And the EC50 [2]?
A: Its EC50 is 59.1 µM (active).

Q: And the AC50 [3]?
A: The AC50 was 0.208 µM (active).

Q: What about the EC50 [4] of the same molecule?
A: The EC50 was 61 µM (active).

Q: And the EC50 [5]?
A: The EC50 was 24.1 µM (active).

Q: What about the EC50 [6] of the same molecule?
A: Its EC50 is 2.72 µM (active).

Q: And the EC50 [7]?
A: Its EC50 is 4.78 µM (active).

Q: And the IC50 [8]?
A: The IC50 was 26.3 µM (active).

Q: What about the IC50 [9] of the same molecule?
A: Its IC50 is 39.7 µM (active).

Q: And the IC50 [10]?
A: Its IC50 is 30.7 µM (active).

Q: What about the AC50 [11] of the same molecule?
A: The AC50 was 4.05 µM (active).

Q: Which IC50 [12] does the source give for `CCOc1ccc(C(C#N)c2c(Cl)cnn(Cc3cccc4ccccc34)c2=O)c(F)c1F` (centres undefined) here?
A: The IC50 was 0.601 µM (active).

Q: And the IC50 [13]?
A: The IC50 was 0.601 µM (active).

Q: Which CC50 [14] does the source give for `CC1CC(C)CN(C(=O)C2CCC(CNc3c(N4CCCCC4)c(=O)c3=O)CC2)C1` (centres undefined) here?
A: Its CC50 is > 30 µM (inconclusive).
